Results reported in publication PMC8037814, “Polymorphic Characterization, Pharmacokinetics, and Anti-Inflammatory Activity of Ginsenoside Compound K Polymorphs” (Molecules, 2021).
Where “and” joins values, the source holds several entries; their conditions need not be identical. Identical values can stand only once. Like-named read-outs stand apart in the source and are kept apart here.

What was measured:
[1] = Pharmacokinetics after oral administration of CK polymorphs in rats (20 mg/kg); format: in vivo, Sprague-Dawley rats; settings: 20 mg/kg; for bioavailability: p.o. 20 mg/kg vs i.v. 10 mg/kg, dose-adjusted AUC ratio, read-out: Fabs (absolute bioavailability); for half-life: read-out: t1/2z (converted); for Vd/F: read-out: Vz/F
[2] = test system: carrageenan-induced acute paw inflammation; experiment: Paw swelling test induced by carrageenan in rats; format: in vivo, Sprague-Dawley rats; design: paw volume: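 right hind paw volume measured with a plethysmometer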; settings: listed as From I; for paw volume / paw edema: mean±SD of 6 rats; for edema inhibition: versus model group
Procedure: Rats were divided into 11 groups of six animals each (sex in half): the normal group, the model group, indomethacin group (1 mg/kg), and form I, II, III, IV groups (each form set 10 mg/kg and 20 mg/kg groups, respectively). Indomethacin and CK were ground and suspended in 0.5% CMC-Na solution. […] The same volume of saline was injected into the normal group. […] Paw edema and inhibitory rate were calculated as the following formula, and the differences among groups were compared with the t-test. Paw edema (%) = (Vn − V0)/V0 × 100%. Vn: paw volume at different time intervals after carrageenan injection. V0: paw volume before carrageenan injection. Inhibitory rate (%) = (Em − Ee)/Em × 100%. Em: paw edema of the model group. Ee: paw edema of the experimental group.

[3] = Pharmacokinetics after oral administration of CK polymorphs in rats (20 mg/kg); format: in vivo, Sprague-Dawley rats; settings: p.o. 20 mg/kg, individual rats 1-3
Procedure: All samples were analyzed with a triple quadrupole LC-MS/MS (API 4000 LC-MS/MS, AB Sciex, Framingham, MA, USA) coupled with an Agilent 1200 HPLC system (Agilent Technologies, Palo Alto, CA, USA). The MS was equipped with an electrospray system (ESI). The N2 gas temperature and ion-spray voltage were set to 550 °C and 4.5 kV, respectively. CK was measured in multiple reaction monitoring (MRM) mode using a negative electrospray ionization source at m/z 667.4 → 621.2 for CK (CID 25.6 v) and m/z 271.2 → 228.8 for internal standard (IS, (E)-5-(4-fluorostyryl)-2-isopropylbenzene-1,3-diol, Welichem Biotech Inc., Wayburne Drive Burnaby, BC, Canada) (CID 28.3 v) with a dwell time of 0.1 s.
Rats were divided randomly into 5 groups of six animals each (sex in half) and given 7 days to acclimatize to the facility before the experiments began. The four forms of CK were suspended in 0.5% sodium carboxymethyl cellulose (CMC-Na) solution and orally administered to rats at a dose of 20 mg/kg. A CK solution in a mixed solvent of dimethyl sulfoxide (DMSO)/castor oil/physiologic saline (3:5:92, v/v) was intravenously administered to the remaining group via the tail vein at a dose of 10 mg/kg. Blood samples were collected by retro-orbital puncture at the following times: 0.167, 0.333, 0.667, 1, 2, 3, 4, 6, 9, 12, and 24 h for the oral administration, and at 0.0083, 0.05, 0.133, 0.25, 0.5, 1, 2, 4, 6, and 9 h for the intravenous administration. Plasma samples were obtained by centrifuging a heparinized blood tube at 4000 rpm for 5 min and then stored at −70 °C until analysis.
The procedure for drug extraction from plasma samples was as follows: 0.2 mL acetonitrile, 0.2 mL plasma sample, and 10 μL IS (1 µg/mL) were added into a 1.5 mL Eppendorf-type tube. This mixture was vortexed for 1 min and then treated with 0.8 mL of methyl tert-butyl ether (MTBE) to precipitate the plasma proteins. After a mechanical vortex for 1 min and subsequent centrifugation (4000 rpm, 5 min), 0.8 mL of the supernatant was transferred and blow-dried with N2 at 40 °C in a water bath. Finally, the residue was dissolved in 120 μL of mobile phase, and then 10 μL was subjected to HPLC for analysis. […] Intra- and inter-day precision and accuracy never exceeded 15% by analyzing six replicate samples.
The CK pharmacokinetic parameters in rats, including the area under the curve (AUC(0–t) and AUC(0–∞)), mean residence time (MRT(0–t) and MRT(0–∞)), maximum concentration (Cmax), time to maximum concentration (Tmax), half-life (t1/2), apparent distribution volume (V), and total plasma clearance (CL), were derived from plasma concentration-time curves by using non-compartmental analysis (NCA) with DAS 2.0 software (Drug And Statistics, Mathematical Pharmacology Professional Committee of China, Shanghai, China). The absolute bioavailability (Fabs) was calculated from the dose-adjusted ratio of AUCp.o. to AUCi.v.. One-way analysis of variance (ANOVA) by SPSS 11.5 (SPSS Inc., Chicago, IL, USA) was conducted to compare the primary PK parameters.

[4] = DSC thermal analysis of CK polymorphs; format: physicochemical; settings: 20 K/min from 20 to 400 °C, dry nitrogen flow
Procedure: DSC measurements were performed on a DSC204 Phoenix calorimeter (NETZSCH, Selb, Germany) with a heating rate of 20 K/min from 20 to 400 °C. The dry nitrogen flow was about 50 mL/min. Data were analyzed using NETZSCH analysis software.

[5] = female rats, p.o. 20 mg/kg, mean ± SD (n = 3)
[6] = female, Sprague-Dawley, rat, plasma, po, female rats, p.o. 20 mg/kg, mean ± SD (n = 3)
[7] = male rats, p.o. 20 mg/kg, mean ± SD (n = 3)
[8] = male, Sprague-Dawley, rat, plasma, po, male rats, p.o. 20 mg/kg, mean ± SD (n = 3)
[9] = 10 mg/kg p.o. qd 3 days, 3h after carrageenan
[10] = 10 mg/kg p.o. qd 3 days, 4h after carrageenan
[11] = 10 mg/kg p.o. qd 3 days, 5h after carrageenan
[12] = 10 mg/kg p.o. qd 3 days, 6h after carrageenan
[13] = 20 mg/kg p.o. qd 3 days, 3h after carrageenan
[14] = 20 mg/kg p.o. qd 3 days, 4h after carrageenan
[15] = 20 mg/kg p.o. qd 3 days, 5h after carrageenan
[16] = 20 mg/kg p.o. qd 3 days, 6h after carrageenan

In the case of `CC(C)=CCCC(C)(OC1OC(CO)C(O)C(O)C1O)C1CCC2(C)C1C(O)CC1C3(C)CCC(O)C(C)(C)C3CCC12C` [Form I, 20-O-β-D-glucopyranosyl-20(S)-protopanaxadiol], the t1/2z ([1]; female rats, p.o. 20 mg/kg, individual rats 1-3) is reported as 2.57 h and 2.56 h, the “AUC(0–t)” value [1, 5] is reported as 2202.7 ± 237.26 ng·h/mL and the “AUC(0–∞)” value [1, 5] is reported as 2216.0 ± 225.74 ng·h/mL. For the same compound, the CLz/F [1, 5] was 152 ± 14.7 mL/min/kg, the Cmax [1, 5] was 453.33 ± 134.83 ng/mL and 453.3 ± 134.8 ng/mL and the Vz/F [1, 5] was 40.5 ± 14.2 L/kg. For the same compound, the t1/2z [1, 5] was 3.0 ± 0.84 h, the bioavailability ([1]; female, Sprague-Dawley, rat, plasma, po, female rats) was 6.84% and the half-life ([1]; female, Sprague-Dawley, rat, plasma, po, female rats, p.o. 20 mg/kg, individual rats 1-3) was 4.03 h. For the same compound, the AUC(0-inf) [1, 6] was 2220 ± 226 ng·h/mL, the Vd/F [1, 6] was 40.5 ± 14.2 L/kg and the half-life [1, 6] was 3.05 ± 0.84 h. For the same compound, the Vz/F ([1]; male rats, p.o. 20 mg/kg, individual rats 1-3) was 77.79 L/kg and 48.49 L/kg and 105.00 L/kg, the “AUC(0–t)” value [1, 7] was 1149.8 ± 430.17 ng·h/mL and the “AUC(0–∞)” value [1, 7] was 1188.0 ± 480.37 ng·h/mL. The CLz/F [1, 7] was 312 ± 121 mL/min/kg, the Cmax [1, 7] was 259.4 ± 144.2 ng/mL and the Vz/F [1, 7] was 77.1 ± 28.3 L/kg. For the same compound, the t1/2z [1, 7] was 3.0 ± 0.96 h, the bioavailability ([1]; male, Sprague-Dawley, rat, plasma, po, male rats) was 3.92% and the AUC(0-t) [1, 8] was 1150 ± 430 ng·h/mL. The CL/F ([1]; male, Sprague-Dawley, rat, plasma, po, male rats, p.o. 20 mg/kg, mean ± SD (n = 3), read-out: CLz/F (converted)) was 312 mL/min/kg, the Cmax ([1]; male, Sprague-Dawley, rat, plasma, po, male rats, p.o. 20 mg/kg, mean ± SD (n = 3), read-out: Cmax) was 259 ± 144 ng/mL and the Vd/F [1, 8] was 77.1 ± 28.3 L/kg. The half-life [1, 8] was 2.97 ± 0.96 h, the paw volume ([2]; 10 mg/kg p.o. qd 3 days, 0h (before carrageenan)) was 1.60±0.13 and the paw edema [2, 9] was 61.02±11.75%. For the same compound, the paw volume [2, 9] was 2.57±0.14, the edema inhibition [2, 9] was 5.06% and the paw edema [2, 10] was 51.30±10.45%. For the same compound, the paw volume [2, 10] was 2.42±0.19, the edema inhibition [2, 10] was 17.74% and the paw edema [2, 11] was 34.69±9.89%. It also gave a paw volume [2, 11] of 2.15±0.16, an edema inhibition [2, 11] of 32.99% and a paw edema [2, 12] of 27.53±8.13%. It also gave a paw volume [2, 12] of 2.03±0.08, an edema inhibition [2, 12] of 29.97% and a paw volume ([2]; 20 mg/kg p.o. qd 3 days, 0h (before carrageenan)) of 1.62±0.13. For the same compound, the paw edema [2, 13] was 52.64±19.00%, the paw volume [2, 13] was 2.45±0.16 and the edema inhibition [2, 13] was 18.10%. It also gave a paw edema [2, 14] of 43.25±16.04%, a paw volume [2, 14] of 2.30±0.11 and an edema inhibition [2, 14] of 30.65%. It also gave a paw edema [2, 15] of 31.96±15.31%, a paw volume [2, 15] of 2.12±0.08 and an edema inhibition [2, 15] of 38.25%. For the same compound, the paw edema [2, 16] was 24.52±13.39%, the paw volume [2, 16] was 2.00±0.09 and the edema inhibition [2, 16] was 37.62%. The “AUC(0-t)” value ([3]; female rats) was 2017.26 ng·h/mL and 2120.78 ng·h/mL and 2470.06 ng·h/mL, the “AUC(0-∞)” value ([3]; female rats) was 2050.82 ng·h/mL and 2124.00 ng·h/mL and 2473.25 ng·h/mL and the CLz/F ([3]; female rats) was 162 mL/min/kg and 157 mL/min/kg and 135 mL/min/kg. For the same compound, the Cmax ([3]; female rats) was 440.01 ng/mL and 325.66 ng/mL and 594.33 ng/mL, the Vz/F ([3]; female rats) was 56.64 L/kg and 34.89 L/kg and 29.88 L/kg and the “AUC(0-t)” value ([3]; male rats) was 762.48 ng·h/mL and 1612.79 ng·h/mL and 1074.22 ng·h/mL. The “AUC(0-∞)” value ([3]; male rats) was 762.82 ng·h/mL and 1709.08 ng·h/mL and 1092.09 ng·h/mL, the CLz/F ([3]; male rats) was 437 mL/min/kg and 195 mL/min/kg and 305.2 mL/min/kg and the Cmax ([3]; male rats) was 168.60 ng/mL and 425.66 ng/mL and 183.98 ng/mL. The t1/2z ([3]; male rats) was 2.87 h and 3.98 h and 2.06 h and the “DSC onset of the decomposition endotherm (thermodynamical stability)” value [4] was 267.5 °C.
